From US11426441B2, “Composition comprising protein phosphatase 1 inhibitory peptide for treating vascular diseases” (BethphaGen Inc., priority 2016, dated 2022) come the findings set out here.

Assay [1] relates to pulmonary arterial smooth muscle cells (PASMCs). Description: PASMC proliferation (PCNA western blotting, cell proliferation assay). Type of assay: cell-based. The note with it: synthetic phenotype induction. As to the method: FIGS. 19a and 19b. […] (19a) Protein expression was quantitatively analyzed through western blotting using antibodies against PCNA and GAPDH 12 and 24 hours after the treatment. (19b) Cell proliferation assay was performed using EZ-CyTox cell viability assay kit.
The rat aortic smooth muscle cells (RASMCs) were isolated from the medial layer of the thoracic aorta derived from male Sprague-Dawley rats (body weight, 180-200 g) by an enzymatic reaction with collagenase (50 U/mL, Worthington) and pancreatic elastase (0.25 mg/mL, Sigma-Aldrich) for 4 hours at 37. The cells were collected and resuspended in DMEM containing 20% (v/v) fetal bovine serum. The resuspension was then plated on collagen I (Sigma-Aldrich)-coated glass coverslips and incubated at 37 in an atmosphere of 5% (v/v) CO2 and 95% (v/v) air. Human coronary smooth muscle cells (HCSMCs), pulmonary arterial endothelial cells (PAECs), and pulmonary arterial smooth muscle cells (PASMCs) were purchased from Lonza and cultured in EBM or SmBM (Lonza) supplemented with 0.5 mg/mL hEGF, […], 1 mg/mL hFGF, […] gentamicin/amphotericin-B, and 5% fetal bovine serum. […]
(§1) Vascular smooth muscle cells (VSMCs) were homogenized in a minimal volume of 50 mM Tris-HCl, pH 7.4, supplemented with a broad-spectrum protease inhibitor cocktail (Calbiochem). […] The blots were scanned and quantified using LAS software.
(In general: A western blot detects proteins with antibodies after separation by electrophoresis.)

A further assay concerns SERCA2a. Put plainly: A23187-induced SERCA2a degradation in HCSMCs. The class given is cell-based, human. The note with it: HCSMCs pretreated 1 hour with 3 μM ψPLB-SE or 15 μM MDL28170, then 50 μM A23187 2 hours. How it is done: FIGS. 4a, 4b, 4c and 4d. (4a-4c) HCSMCs were pretreated with 3 μM ψPLB-SE and 15 μM MDL28170 for 1 hour, and then treated with 50 μM A23187 for 2 hours. (4a) Immunostaining was performed with antibodies against SERCA2a and SERCA2b (green). Nuclei were stained with Hoechst (blue). Representative merged images are shown. Scale bar, 50 μm. (4b) Western blot analysis was performed with cell extracts. Data are expressed as the means±SD (n=3-4; *, P<0.05). (4c) Baseline Ca^2+ concentration was measured by lonOptix calcium imaging system. (4d) RASMC were treated with ψPLB-SE or control peptide under the same conditions as described for FIG. 1B. The baseline Ca^2+ concentration was measured by lonOptix calcium imaging system (*, P<0.05).
The rat aortic smooth muscle cells (RASMCs) were isolated from the medial layer of the thoracic aorta derived from male Sprague-Dawley rats (body weight, 180-200 g) by an enzymatic reaction with collagenase (50 U/mL, Worthington) and pancreatic elastase (0.25 mg/mL, Sigma-Aldrich) for 4 hours at 37. The cells were collected and resuspended in DMEM containing 20% (v/v) fetal bovine serum. The resuspension was then plated on collagen I (Sigma-Aldrich)-coated glass coverslips and incubated at 37 in an atmosphere of 5% (v/v) CO2 and 95% (v/v) air. Human coronary smooth muscle cells (HCSMCs), pulmonary arterial endothelial cells (PAECs), and pulmonary arterial smooth muscle cells (PASMCs) were purchased from Lonza and cultured in EBM or SmBM (Lonza) supplemented with 0.5 mg/mL hEGF, […], 1 mg/mL hFGF, […] gentamicin/amphotericin-B, and 5% fetal bovine serum. All the cells were cultured at 37 in 5% (v/v) CO2 and 95% (v/v) air. RASMCs and HCSMCs were, respectively, plated at the densities of 1×10^4 cells/cm^2 and 1×10^5 cells/cm^2 for immunostaining and western blotting experiments. […]
as §1

In assay [2] the test system is interaction of PP1 and Akt. Description: PP1 immunoprecipitation of pulmonary tissue lysate. Type of assay: binding. The note with it: ψPLB-SE added upon the precipitation. As to the method:
FIGS. 16a, 16b and 16c. (16a-16b) PAECs were treated with 3 μM ψPLB-SE for 1 hour, and protein expression was quantitatively analyzed through western blotting using antibodies against Phospho-eNOS (ser1177), total eNOS, phospho-Akt (Ser473, Thr308), total Akt, and GAPDH. (16c) The pulmonary tissue lysate was subjected to immunoprecipitation using PP1 antibody to investigate the interactions of PP1 with eNOS and Akt depending on the presence or absence of the treatment with ψPLB-SE using respective antibodies therefor.
In order to intensively investigate the interactions of PP1 with eNOS and Akt, the pulmonary tissue lysate was subjected to immunoprecipitation using an antibody against PP1, and the effects of ψPLB-SE on the interactions were investigated by adding ψPLB-SE upon the precipitation. […] The activation of eNOS through the inhibition of the interaction between PP1 and Akt was supplemented through the experiments on the inhibition of the high-order kinase of Akt. The phosphorylation increases of Akt and eNOS due to the inhibition of dephosphorylation were investigated by offsetting the phosphorylation conditions of Akt through the treatment with LY294002, which is an inhibitor of phosphoinositide-3-kinase (PI3K), a known high-order kinase of Akt, at a concentration of 50 μM, followed by ψPLB-SE treatment. […]

Another assay has as its system PLB. Description: PLB phosphorylation in RASMCs (western blotting). Type of assay: cell-based, rat. How it is done: FIG. 7. ψPLB-SE attenuates PLB dephosphorylation in VSMCs. The proteins samples shown in FIG. 2C were subjected to western blotting. Antibodies against PLB or phospho-PLB were used. Data are expressed as the means±SD (n=3-4; *, P<0.05).
Vascular smooth muscle cells (VSMCs) were homogenized in a minimal volume of 50 mM Tris-HCl, pH 7.4, supplemented with a broad-spectrum protease inhibitor cocktail (Calbiochem). The proteins were separated by SDS-PAGE and then transferred to polyvinylidene fluoride membranes (Schleicher & Schuell). After blocking with 5% (w/v) non-fat milk for 1 hour and washing with TBST, the membranes were incubated with antibodies against SERCA2a, SERCA2b (21st century biochemical), PCNA (abcam), GAPDH (Sigma-Aldrich), phospho-eNOS, eNOS, phospho-eIF2α, eIF2α (cell signaling), Vimentin, α-SMA, BMPR2 (Santa cruz), phospho-Akt, Akt (cell signaling), phospho-phospholamban (Merck), and Phospholamban (cell signaling). The membranes were then incubated with horseradish peroxidase-conjugated secondary antibodies (Jackson ImmunoResearch, West Grove, Pa., USA) and developed using a chemiluminescent substrate (Dogen). The blots were scanned and quantified using LAS software.

No end group written: not given here.

Consider “RAETIEMPQ (not fully specified) [ψPLB-SE, 9-mer PP1 decoy peptide mimicking phosphorylated PLB; conjugated via GGG linker to cell penetrating peptide dNP2 or TAT]”, for which, in assay [1], the “cell proliferation (cell proliferation assay)” value was “inhibiting cell proliferation” and the “expression of PCNA” value is given as “attenuated”. In addition, the “A23187 (Ca^2+)-dependent degradation of SERCA2a” value in the assay with SERCA2a is “completely inhibited”. Besides, in assay [2], the “interaction of Akt with PP1 (immunoprecipitation)” value is given as “attenuated”. In addition, in the assay on PLB, the “dephosphorylation of PLB” value is recorded as “inhibited”.
